{
  "source": "ChEMBL document CHEMBL1649335",
  "about": "“Discovery of {1-[4-(2-{hexahydropyrrolo[3,4-c]pyrrol-2(1H)-yl}-1H-benzimidazol-1-yl)piperidin-1-yl]cyclooctyl}methanol, systemically potent novel non-peptide agonist of nociceptin/orphanin FQ receptor as analgesic for the treatment of neuropathic pain: design, synthesis, and structure-activity …” (Bioorg Med Chem, 2010)",
  "key": {"[1]": {"assay": "Drug level Sprague-Dawley rat brain at 10 mg/kg, sc after 0.5 hrs", "format": "ADME, organism-based", "set-up": "dose 10 mg/kg, route subcutaneous", "conditions": "read-out: Drug uptake"}, "[2]": {"assay": "Drug level Sprague-Dawley rat cerebrospinal fluid at 10 mg/kg, sc after 0.5 hrs", "format": "ADME, organism-based", "set-up": "dose 10 mg/kg, route subcutaneous", "conditions": "read-out: Drug uptake"}, "[3]": {"assay": "Drug level Sprague-Dawley rat plasma at 10 mg/kg, sc after 0.5 hrs", "format": "ADME, organism-based", "set-up": "dose 10 mg/kg, route subcutaneous", "conditions": "read-out: Drug uptake"}, "Rattus norvegicus [4]": {"tested_on": "Rattus norvegicus", "assay": "Antiallodynic activity against von Frey hair mechanically stimulated neuropathic pain in sc dosed Sprague-Dawley rat assessed as increase of response threshold after 2 hrs", "format": "functional"}, "Rattus norvegicus [5]": {"tested_on": "Rattus norvegicus", "assay": "Antiallodynic activity against von Frey hair mechanically stimulated neuropathic pain in sc dosed Sprague-Dawley rat assessed as assessed as minimum effective dose to increase of response threshold after 2 hrs", "format": "functional"}, "Rattus norvegicus [6]": {"tested_on": "Rattus norvegicus", "assay": "Antiallodynic activity against von Frey hair mechanically stimulated neuropathic pain in Sprague-Dawley rat assessed as increase of response threshold at 30 mg/kg, sc after 30 mins relative to control", "format": "functional", "conditions": "route subcutaneous"}, "Rattus norvegicus [7]": {"tested_on": "Rattus norvegicus", "assay": "Antiallodynic activity against von Frey hair mechanically stimulated neuropathic pain in Sprague-Dawley rat assessed as effect on allodynia in contralateral paw at 5.5 to 170 nmol/site administered intrathecally after 20 mins", "format": "functional, organism-based"}, "Rattus norvegicus [8]": {"tested_on": "Rattus norvegicus", "assay": "Antiallodynic activity against von Frey hair mechanically stimulated neuropathic pain in Sprague-Dawley rat assessed as increase of response threshold per site at 170 nmol/site administered intrathecally after 20 mins relative to control", "format": "functional"}, "Rattus norvegicus [9]": {"tested_on": "Rattus norvegicus", "assay": "Antiallodynic activity against von Frey hair mechanically stimulated neuropathic pain in Sprague-Dawley rat assessed as increase of response threshold per site at 170 nmol/site administered intrathecally after 1 hr relative to control", "format": "functional"}, "Rattus norvegicus [10]": {"tested_on": "Rattus norvegicus", "assay": "Toxicity in von Frey hair mechanically stimulated neuropathic pain Sprague-Dawley rat model assessed as respiratory depression at up to 30 mg/kg, sc", "format": "organism-based", "set-up": "dose 30 mg/kg, route subcutaneous", "conditions": "in vivo"}, "Rattus norvegicus [11]": {"tested_on": "Rattus norvegicus", "assay": "Toxicity in von Frey hair mechanically stimulated neuropathic pain Sprague-Dawley rat model assessed as respiratory depression at up to 170 nmol/site, administered intrathecally", "format": "organism-based", "conditions": "in vivo, icv_or_intrathecal"}, "Rattus norvegicus [12]": {"tested_on": "Rattus norvegicus", "assay": "Toxicity in von Frey hair mechanically stimulated neuropathic pain Sprague-Dawley rat model assessed as sedation effect at up to 170 nmol/site, administered intrathecally", "format": "organism-based", "conditions": "in vivo, icv_or_intrathecal"}, "[13]": {"biological_target": "Beta-1 adrenergic receptor (Homo sapiens) (UniProt P08588)", "sequence (P08588 whole entry, looked up)": "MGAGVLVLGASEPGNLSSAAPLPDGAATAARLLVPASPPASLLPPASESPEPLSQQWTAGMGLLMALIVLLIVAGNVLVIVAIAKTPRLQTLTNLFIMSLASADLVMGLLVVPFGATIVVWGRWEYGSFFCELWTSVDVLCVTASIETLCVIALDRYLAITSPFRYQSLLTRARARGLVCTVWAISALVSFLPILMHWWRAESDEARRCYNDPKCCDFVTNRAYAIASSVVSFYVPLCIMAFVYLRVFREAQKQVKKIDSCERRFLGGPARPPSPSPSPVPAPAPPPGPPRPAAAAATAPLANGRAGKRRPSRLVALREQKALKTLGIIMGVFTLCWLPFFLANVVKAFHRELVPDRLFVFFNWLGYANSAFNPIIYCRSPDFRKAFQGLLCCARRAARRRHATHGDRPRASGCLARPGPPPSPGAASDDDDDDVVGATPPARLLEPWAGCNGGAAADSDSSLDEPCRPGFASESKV", "assay": "Inhibition of human beta1 adrenoceptor at 1 uM relative to control"}, "[14]": {"biological_target": "D(2) dopamine receptor (Homo sapiens) (UniProt P14416)", "sequence (P14416 whole entry)": "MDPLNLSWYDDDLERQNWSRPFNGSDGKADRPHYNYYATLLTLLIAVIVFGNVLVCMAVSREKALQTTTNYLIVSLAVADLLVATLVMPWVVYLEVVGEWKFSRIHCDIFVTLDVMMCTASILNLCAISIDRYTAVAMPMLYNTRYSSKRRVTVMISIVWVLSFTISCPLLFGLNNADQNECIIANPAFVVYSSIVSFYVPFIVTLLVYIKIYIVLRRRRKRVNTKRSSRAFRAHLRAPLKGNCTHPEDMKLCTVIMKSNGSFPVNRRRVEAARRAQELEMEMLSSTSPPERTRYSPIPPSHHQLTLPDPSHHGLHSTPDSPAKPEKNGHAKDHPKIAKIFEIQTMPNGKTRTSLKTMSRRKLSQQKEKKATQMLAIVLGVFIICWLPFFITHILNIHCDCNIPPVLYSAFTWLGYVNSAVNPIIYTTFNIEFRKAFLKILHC", "assay": "Inhibition of human dopamine D2 receptor at 1 uM relative to control"}, "Rattus norvegicus [15]": {"species_on_record": "Rattus norvegicus", "assay": "Inhibition of rat GABA receptor at 1 uM relative to control"}, "Rattus norvegicus [16]": {"species_on_record": "Rattus norvegicus", "assay": "Inhibition of rat glutamate receptor at 1 uM relative to control"}, "Rattus norvegicus [17]": {"species_on_record": "Rattus norvegicus", "assay": "Inhibition of rat 5-HT receptor at 1 uM relative to control"}, "[18]": {"biological_target": "5-hydroxytryptamine receptor 2A (Homo sapiens) (UniProt P28223)", "sequence (P28223 whole entry)": "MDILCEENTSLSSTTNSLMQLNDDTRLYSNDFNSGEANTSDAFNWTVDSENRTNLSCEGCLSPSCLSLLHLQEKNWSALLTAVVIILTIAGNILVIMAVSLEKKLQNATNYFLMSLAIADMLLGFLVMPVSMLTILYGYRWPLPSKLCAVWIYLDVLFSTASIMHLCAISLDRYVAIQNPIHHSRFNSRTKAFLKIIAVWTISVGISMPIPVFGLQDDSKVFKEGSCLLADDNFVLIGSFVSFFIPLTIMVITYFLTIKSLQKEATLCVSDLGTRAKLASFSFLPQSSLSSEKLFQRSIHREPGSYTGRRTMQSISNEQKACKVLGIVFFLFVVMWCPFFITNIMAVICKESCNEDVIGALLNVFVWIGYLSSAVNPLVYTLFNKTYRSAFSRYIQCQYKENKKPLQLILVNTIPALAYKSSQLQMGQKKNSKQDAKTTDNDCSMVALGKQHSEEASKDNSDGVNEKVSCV", "assay": "Inhibition of human 5-HT2A receptor at 1 uM relative to control"}, "[19]": {"biological_target": "Sodium-dependent serotonin transporter (Homo sapiens) (UniProt P31645)", "sequence (P31645 whole entry, looked up)": "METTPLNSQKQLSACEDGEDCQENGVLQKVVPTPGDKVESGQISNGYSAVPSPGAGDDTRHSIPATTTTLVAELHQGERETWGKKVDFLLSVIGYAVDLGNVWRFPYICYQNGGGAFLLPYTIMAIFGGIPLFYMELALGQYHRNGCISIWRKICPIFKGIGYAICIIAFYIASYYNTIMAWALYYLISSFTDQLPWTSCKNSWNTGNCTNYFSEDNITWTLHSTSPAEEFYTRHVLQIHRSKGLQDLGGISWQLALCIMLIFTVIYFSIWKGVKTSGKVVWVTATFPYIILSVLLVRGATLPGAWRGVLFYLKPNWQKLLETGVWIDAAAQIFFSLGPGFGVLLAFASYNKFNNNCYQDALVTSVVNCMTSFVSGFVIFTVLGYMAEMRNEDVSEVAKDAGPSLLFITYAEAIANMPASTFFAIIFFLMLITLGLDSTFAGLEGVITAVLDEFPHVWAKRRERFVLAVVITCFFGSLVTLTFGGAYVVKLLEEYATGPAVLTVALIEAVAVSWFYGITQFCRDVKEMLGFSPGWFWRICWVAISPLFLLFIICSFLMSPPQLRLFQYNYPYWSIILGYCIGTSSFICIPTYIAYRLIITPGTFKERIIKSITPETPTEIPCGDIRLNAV", "assay": "Inhibition of human 5-HT transporter at 1 uM relative to control"}, "[20]": {"biological_target": "Vasopressin V1a receptor (Homo sapiens) (UniProt P37288)", "sequence (P37288 whole entry, looked up)": "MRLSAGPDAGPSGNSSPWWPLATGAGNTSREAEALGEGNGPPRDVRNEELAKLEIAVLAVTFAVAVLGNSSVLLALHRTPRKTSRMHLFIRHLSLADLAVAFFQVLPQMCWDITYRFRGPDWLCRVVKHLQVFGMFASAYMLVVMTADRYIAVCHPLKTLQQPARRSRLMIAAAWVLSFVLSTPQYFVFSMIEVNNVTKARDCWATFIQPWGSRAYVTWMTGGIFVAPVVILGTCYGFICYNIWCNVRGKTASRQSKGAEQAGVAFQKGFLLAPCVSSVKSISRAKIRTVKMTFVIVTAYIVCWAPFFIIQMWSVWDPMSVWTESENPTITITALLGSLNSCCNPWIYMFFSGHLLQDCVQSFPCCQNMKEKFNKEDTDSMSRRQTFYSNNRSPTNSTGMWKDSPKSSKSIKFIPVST", "assay": "Inhibition of human vasopressin V1A receptor at 1 uM relative to control"}, "Rattus norvegicus [21]": {"species_on_record": "Rattus norvegicus", "assay": "Inhibition of rat K+ATP channel at 1 uM relative to control"}, "Rattus norvegicus [22]": {"species_on_record": "Rattus norvegicus", "assay": "Inhibition of rat K+V channel at 1 uM relative to control"}, "monoamine oxidase B": {"biological_target": "monoamine oxidase B (Homo sapiens, UniProt P27338)", "sequence (P27338 whole entry)": "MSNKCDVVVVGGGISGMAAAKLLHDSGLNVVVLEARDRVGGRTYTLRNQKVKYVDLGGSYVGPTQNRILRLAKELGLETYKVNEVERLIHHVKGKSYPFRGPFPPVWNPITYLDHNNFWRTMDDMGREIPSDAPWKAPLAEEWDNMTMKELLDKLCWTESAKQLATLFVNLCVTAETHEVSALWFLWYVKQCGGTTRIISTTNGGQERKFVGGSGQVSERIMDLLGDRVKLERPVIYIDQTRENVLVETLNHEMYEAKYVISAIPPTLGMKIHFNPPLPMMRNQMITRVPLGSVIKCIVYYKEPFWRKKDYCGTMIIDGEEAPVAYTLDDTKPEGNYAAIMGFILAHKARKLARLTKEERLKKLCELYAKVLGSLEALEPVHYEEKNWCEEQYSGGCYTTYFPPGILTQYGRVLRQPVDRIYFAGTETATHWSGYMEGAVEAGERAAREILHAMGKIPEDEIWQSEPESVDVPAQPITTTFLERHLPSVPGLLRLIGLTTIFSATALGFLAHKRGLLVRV", "assay": "Inhibition of human monoamine oxidase B at 1 uM relative to control"}, "Nociceptin receptor [23]": {"biological_target": "T1, Nociceptin receptor (Homo sapiens, UniProt P41146)", "T1 sequence (P41146 whole entry)": "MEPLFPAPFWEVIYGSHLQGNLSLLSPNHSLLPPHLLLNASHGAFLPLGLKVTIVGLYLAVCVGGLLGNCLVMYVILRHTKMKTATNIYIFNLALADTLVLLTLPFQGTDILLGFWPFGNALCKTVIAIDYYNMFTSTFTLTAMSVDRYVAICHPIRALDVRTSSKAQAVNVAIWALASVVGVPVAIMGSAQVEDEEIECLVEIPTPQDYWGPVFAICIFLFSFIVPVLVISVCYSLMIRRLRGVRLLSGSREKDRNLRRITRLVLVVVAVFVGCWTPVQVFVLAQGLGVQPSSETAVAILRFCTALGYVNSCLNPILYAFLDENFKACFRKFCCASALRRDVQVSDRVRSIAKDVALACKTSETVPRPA"}, "in vitro": {"assay": "in vitro", "conditions": "human, liver microsomes"}, "Nociceptin receptor [24]": {"biological_target": "T1, Nociceptin receptor", "assay": "biochemical"}},
  "note": "Activity calls are given as the source filed them.",
  "data": [
    {"smiles": "OCC1(N2CCC(n3c(N4CC5CNCC5C4)nc4ccccc43)CC2)CCCCCCC1", "note": "(stereo unspecified)", "values": [
      {"measurement": "concentration at 0.5 h", "setting": "[1]", "value": 152, "unit": "ng/mL"},
      {"measurement": "concentration at 0.5 h", "setting": "[2]", "value": 11, "unit": "ng/mL"},
      {"measurement": "concentration at 0.5 h", "setting": "[3]", "value": 600, "unit": "ng/mL"},
      {"measurement": "ED50", "setting": "Rattus norvegicus [4]", "value": "> 30", "unit": "mg/kg"},
      {"measurement": "MED", "setting": "Rattus norvegicus [5]", "value": 30, "unit": "mg/kg"},
      {"measurement": "Activity", "setting": "Rattus norvegicus [6]", "value": 57.6, "unit": "%"},
      {"measurement": "Activity", "setting": "Rattus norvegicus [7]", "value": "inactive"},
      {"measurement": "Activity", "setting": "Rattus norvegicus [8]", "value": 59.3, "unit": "%"},
      {"measurement": "Activity", "setting": "Rattus norvegicus [9]", "value": 45.5, "unit": "%"},
      {"measurement": "Activity", "setting": "Rattus norvegicus [10]", "value": "Non-toxic"},
      {"measurement": "Activity", "setting": "Rattus norvegicus [11]", "value": "Non-toxic"},
      {"measurement": "Activity", "setting": "Rattus norvegicus [12]", "value": "Non-toxic"},
      {"measurement": "inhibition", "setting": "[13]", "value": "< 10", "unit": "%"},
      {"measurement": "inhibition", "setting": "[14]", "value": "< 10", "unit": "%"},
      {"measurement": "inhibition", "setting": "Rattus norvegicus [15]", "value": "< 10", "unit": "%"},
      {"measurement": "inhibition", "setting": "Rattus norvegicus [16]", "value": "< 10", "unit": "%"},
      {"measurement": "inhibition", "setting": "Rattus norvegicus [17]", "value": "< 10", "unit": "%"},
      {"measurement": "inhibition", "setting": "[18]", "value": "< 10", "unit": "%"},
      {"measurement": "inhibition", "setting": "[19]", "value": "< 10", "unit": "%"},
      {"measurement": "inhibition", "setting": "[20]", "value": "< 10", "unit": "%"},
      {"measurement": "inhibition", "setting": "Rattus norvegicus [21]", "value": "< 10", "unit": "%"},
      {"measurement": "inhibition", "setting": "Rattus norvegicus [22]", "value": "< 10", "unit": "%"},
      {"measurement": "inhibition at 1 µM", "setting": "monoamine oxidase B", "value": "< 10", "unit": "%"},
      {"measurement": "EC50", "setting": "Nociceptin receptor [23]", "value": 12, "unit": "nM"},
      {"measurement": "half-life at 1 µM", "setting": "in vitro", "value": 45.6, "unit": "min"},
      {"measurement": "Ki", "setting": "Nociceptin receptor [24]", "value": 1.44, "unit": "nM"}
    ]}
  ]
}
